According to ChEMBL document CHEMBL1151376, “Inhibition of Mitochondrial Function in Termite Queen Ovary by Rabdosia Diterpenoids” (J Nat Prod, 1981):

Experiments:
Assay type in all cases: functional
Settings in all cases: Female gonad
Macrotermes subhyalinus [1] = test: Effect on oxygen consumption in Macrotermes subhyalinus ovary mitochondria assessed as inhibition of state 3 respiration assessed oxygen atom per mg protein per min at 100 uM by polarographic analysis
Macrotermes subhyalinus [2] = test: Effect on oxygen consumption in Macrotermes subhyalinus ovary mitochondria assessed as inhibition of state 4 respiration assessed oxygen atom per mg protein per min at 100 uM by polarographic analysis
Macrotermes subhyalinus [3] = test: Effect on oxygen consumption in Macrotermes subhyalinus ovary mitochondria assessed as inhibition of state 4U respiration assessed oxygen atom per mg protein per min at 100 uM in presence of 2,4-dinitrophenol by polarographic analysis
Macrotermes subhyalinus [4] = test: Inhibition of oxidative phosphorylation in Macrotermes subhyalinus ovary mitochondria assessed as respiratory control ratio assessed oxygen atom per mg protein per min at 100 uM
Macrotermes subhyalinus [5] = test: Inhibition of oxidative phosphorylation in Macrotermes subhyalinus ovary mitochondria assessed as ADP/O ratio at 100 uM
Macrotermes subhyalinus [6] = test: Effect on phosphorylation rate in Macrotermes subhyalinus ovary mitochondria assessed as nmoles ATP synthesized per mg protein per min at 100 uM
Macrotermes subhyalinus [7] = test: Effect on oxygen consumption in Macrotermes subhyalinus ovary mitochondria assessed as inhibition of state 3 respiration assessed oxygen atom per mg protein per min at 250 uM by polarographic analysis
Macrotermes subhyalinus [8] = test: Effect on oxygen consumption in Macrotermes subhyalinus ovary mitochondria assessed as inhibition of state 4 respiration assessed oxygen atom per mg protein per min at 250 uM by polarographic analysis
Macrotermes subhyalinus [9] = test: Effect on oxygen consumption in Macrotermes subhyalinus ovary mitochondria assessed as inhibition of state 4U respiration assessed oxygen atom per mg protein per min at 250 uM in presence of 2,4-dinitrophenol by polarographic analysis
Macrotermes subhyalinus [10] = test: Inhibition of oxidative phosphorylation in Macrotermes subhyalinus ovary mitochondria assessed as respiratory control ratio assessed oxygen atom per mg protein per min at 250 uM
Macrotermes subhyalinus [11] = test: Inhibition of oxidative phosphorylation in Macrotermes subhyalinus ovary mitochondria assessed as ADP/O ratio at 250 uM
Macrotermes subhyalinus [12] = test: Effect on phosphorylation rate in Macrotermes subhyalinus ovary mitochondria assessed as nmoles ATP synthesized per mg protein per min at 250 uM

## C=C1C(=O)[C@]23C[C@H]1C[C@H](O)[C@H]2[C@]1(COC(C)=O)[C@H](CCC(C)(C)[C@H]1C=O)OC3=O
Macrotermes subhyalinus [1]
  Activity: 118
Macrotermes subhyalinus [2]
  Activity: 44.2
Macrotermes subhyalinus [3]
  Activity: 41.2
Macrotermes subhyalinus [4]
  Ratio: 2.66
Macrotermes subhyalinus [5]
  Ratio: 1.03
Macrotermes subhyalinus [6]
  Activity: 121

## C=C1C(=O)[C@]23[C@H](O)[C@H]1CC[C@H]2[C@@]12CO[C@]3(O)[C@@H](O)[C@@H]1C(C)(C)CC[C@@H]2O
Macrotermes subhyalinus [1]
  Activity: 118
Macrotermes subhyalinus [2]
  Activity: 32.4
Macrotermes subhyalinus [3]
  Activity: 106
Macrotermes subhyalinus [4]
  Ratio: 3.63
Macrotermes subhyalinus [5]
  Ratio: 1.33
Macrotermes subhyalinus [6]
  Activity: 156

## C=C1C(=O)[C@]23C[C@H]1C[C@@H](O)[C@H]2[C@@]12CO[C@@H](O)[C@@H]1C(C)(C)CC[C@@H]2OC3=O
Macrotermes subhyalinus [7]
  Activity: 94.8
Macrotermes subhyalinus [8]
  Activity: 41.2
Macrotermes subhyalinus [9]
  Activity: 61.8
Macrotermes subhyalinus [10]
  Ratio: 2.3
Macrotermes subhyalinus [11]
  Ratio: 1.79
Macrotermes subhyalinus [12]
  Activity: 170

## C=C1C(=O)[C@]23C[C@H]1CC[C@H]2[C@@]12CO[C@@H](O)[C@@H]1C(C)(C)[C@@H](O)C[C@@H]2OC3=O
Macrotermes subhyalinus [1]
  Activity: 115
Macrotermes subhyalinus [2]
  Activity: 33.6
Macrotermes subhyalinus [3]
  Activity: 104
Macrotermes subhyalinus [4]
  Ratio: 3.41
Macrotermes subhyalinus [5]
  Ratio: 1.62
Macrotermes subhyalinus [6]
  Activity: 186
